From patent US7407939B2, “Protein kinase inhibitors comprising ATP mimetics conjugated to peptides or peptidomimetics” (CureGenics Ltd., priority 2001, dated 2008)
Read-outs that look alike come from different tables or passages of the source. One block for each compound: values may come before it. *1 amine or outer side, *2 acyl side, *3 side chain or, on linkers, in order; H or OH if unused. Where a SMILES comes first, the peptide text is derived from it. Side-chain parts run from the residue outwards. [ ]: non-standard residue; d: D form. The star is where a group is joined. Isoquinoline5sulfonyl = O=S(=O)(c1cccc2cnccc12)*; X2 = O=C(OCC(Cc1ccccc1)N[*:1])[*:2]; Ethylenediamine = C(CN[*:2])N[*:1]; hLeu = CC(C)CC[C@H](N)C(=O)O; Nle = CCCC[C@H](N)C(=O)O; Orn = NCCC[C@H](N)C(=O)O; Nva = CCC[C@H](N)C(=O)O; Abu = CC[C@H](N)C(=O)O; Dap = NC[C@H](N)C(=O)O; Ava = NCCCCC(=O)O; βAla = NCCC(=O)O

Tests used:
PKB = biological target: T1, PKB (Homo sapiens, UniProt P31749); experiment: PKB in vitro kinase activity assay (soluble His-HA-PKB / SPA bead screening); type: biochemical; parameters: % Inhibition PKB I / % Inhibition PKB II: concentration or dose not given beside the values; conditions: for inhibition at 1 µM: 1 μM compound concentration
T1 construct: His; HA; made in house
T1 sequence (P31749 whole entry, species assumed): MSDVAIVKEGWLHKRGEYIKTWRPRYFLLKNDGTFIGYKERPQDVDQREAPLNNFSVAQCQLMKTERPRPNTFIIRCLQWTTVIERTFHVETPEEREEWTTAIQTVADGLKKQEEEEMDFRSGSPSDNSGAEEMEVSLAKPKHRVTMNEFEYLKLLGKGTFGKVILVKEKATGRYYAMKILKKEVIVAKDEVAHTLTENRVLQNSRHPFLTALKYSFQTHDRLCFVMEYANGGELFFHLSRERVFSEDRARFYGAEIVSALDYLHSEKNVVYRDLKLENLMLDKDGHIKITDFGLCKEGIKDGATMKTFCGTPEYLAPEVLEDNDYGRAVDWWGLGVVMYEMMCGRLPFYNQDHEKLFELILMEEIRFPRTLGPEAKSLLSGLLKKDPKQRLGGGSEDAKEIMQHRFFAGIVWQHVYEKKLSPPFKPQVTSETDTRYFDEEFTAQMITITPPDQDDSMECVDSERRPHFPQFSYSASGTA

PKA = biological target: T2, PKA (Bos taurus, UniProt P00517); experiment: In vitro PKA kinase activity assay (kemptide / SPA beads); type: biochemical; parameters: % Inhibition PKA: concentration or dose not given beside the values;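 also: Cell-free assay of purified PKA catalytic subunit phosphorylating the 7-mer kemptide substrate, run in MOPS buffer with magnesium acetate and BSA, with blank wells lacking enzyme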
T2 construct: purchased Promega

PC-3 cells = experiment: ssDNA apoptosis ELISA (induction of apoptosis in prostate cancer cells); type: cell-based; conditions: 50 μM, optical density of treated divided by untreated cells
Procedure: Cells were assayed for Apoptosis using the ssDNA Apoptosis ELISA kit (Chemicon International Inc.). Cells were seeded in 96-well plates (5000 cells/well) and treated with different concentrations of the inhibitors. At different time point, plates were centrifuges at 200 g for 5 min, medium was removed and the cells were fixed with 80% methanol in PBS for 30 min at room temperature. Plates were dried by floating in a waterbath at 37° C. for 20 minutes. 50 μl of Formamide was added to each well and incubate at room temperature for 10 min. Plates were heated to 75° C. in a circulating waterbath for 10 min, cooled in refrigerator for 5 min, and then formamide was removed. Plates were blocked by 3% non-fat dry milk in distilled water (w/v) for 1 hr at 37° C. Blocking was removed and 100 μl of antibody mixture (primary monoclonal antibody to ssDNA and HRP-labelled anti-mouse IgM) was added to each well. Plates were monitored for colour development by ABTS using microplate reader at 405 nm.
DNA in apoptotic cells is sensitive to denaturation by formamide in contrast to necrotic cells. This sensitivity is due to changes in apoptotic cells chromatin. The specific denaturation was detected with monoclonal antibody to single stranded DNA. Using ssDNA Apoptosis ELISA kit (Chemicon International, Inc.) chimeric compounds were analyzed for their potential to induce apoptosis in PC-3 cells compared to TRAIL (TNF-related apoptosis-inducing ligand), a known apoptotic agent (R&D Systems, Inc.). Results are presented in values of apoptotic index which is calculated by dividing the optical density of treated and untreated cells.

[1] = Assay 1, read-out: PKB-kinase (spa) Assay 1, % inhibition of kinase activity
[2] = Assay 2, read-out: PKB-kinase (spa) Assay 2, % inhibition of kinase activity
[3] = Table 6, most active compounds from plate TY-60020, read-out: IC50 PKB
[4] = Table 6, most active compounds from plate TY-60020, read-out: IC50 PKA
[5] = Table 2, chimeric compounds, read-out: Activity PKA
[6] = chimeric PTR compounds (peptide conjugated to isoquinoline small molecule), read-out: PKB IC50
[7] = chimeric PTR compounds (peptide conjugated to isoquinoline small molecule), read-out: PKA IC50
[8] = Table 3, linear 7-mer peptides, read-out: Activity PKB
[9] = Table 3, linear 7-mer peptides, read-out: Activity PKA

Compound: CC(C)CC[C@H](NC(=O)[C@H](C)NC(=O)[C@H](CO)NC(=O)[C@@H](NC(=O)[C@H](CCCNC(=N)N)NC(=O)[C@@H]1CCCN1C(=O)[C@@H](N)CCCNC(=N)N)[C@@H](C)O)C(N)=O [TY 60002-50, Arg-Pro-Arg-Thr-Ser-Ala-Hol] (H-RPRTSA[hLeu]-NH2; N-terminus and C-terminus assumed)
IC50 (PKB; [8]): 5 µM
IC50 (PKA; [9]): > 40 µM

Compound: CC[C@H](NC(=O)[C@H](CO)NC(=O)[C@@H](NC(=O)[C@H](CCCNC(=N)N)NC(=O)[C@@H]1CCCN1C(=O)[C@@H](N)CCCNC(=N)N)C(C)C)C(=O)N[C@@H](Cc1ccccc1)C(N)=O [TY 60002-61, Arg-Pro-Arg-Val-Ser-Abu-Phe] (H-RPRVS[Abu]F-NH2; N-terminus and C-terminus assumed)
IC50 (PKB; [8]): 5 µM
IC50 (PKA; [9]): > 40 µM

Compound: CC[C@H](NC(=O)[C@H](CO)NC(=O)[C@@H](NC(=O)[C@H](CCCNC(=N)N)NC(=O)[C@@H]1CCCN1C(=O)[C@@H](N)CCCNC(=N)N)[C@@H](C)O)C(=O)N[C@@H](CCC(C)C)C(N)=O [TY 60002-73, Arg-Pro-Arg-Thr-Ser-Abu-Hol] (H-RPRTS[Abu][hLeu]-NH2; N-terminus and C-terminus assumed)
IC50 (PKB; [8]): 5 µM
IC50 (PKB; Table 10, accurate IC50 curve, peptide moiety alone, read-out: IC50 μM PKB): 34 µM
% Inhibition PKB I (PKB; plate screening, peptide moiety alone, PKB I): 44%
IC50 (PKA; [9]): > 40 µM
IC50 (PKA; Table 10, accurate IC50 curve, peptide moiety alone, read-out: IC50 μM PKA): 228 µM
% Inhibition PKA (PKA; plate screening, peptide moiety alone): 8%

Compound: CC(C)CC[C@H](NC(=O)[C@H](CN)NC(=O)[C@H](CO)NC(=O)[C@@H](NC(=O)[C@H](CCCNC(=N)N)NC(=O)[C@@H]1CCCN1C(=O)[C@@H](N)CCCNC(=N)N)[C@@H](C)O)C(N)=O [TY 60002-96, Arg-Pro-Arg-Thr-Ser-Dap-Hol] (H-RPRTS[Dap][hLeu]-NH2; N-terminus and C-terminus assumed)
IC50 (PKB; [8]): 5 µM
IC50 (PKA; [9]): > 40 µM

Compound: Arg-Pro-Arg-Nle-Glu-(5-mercaptoaminopropyl-isoquinoline)-Ser-Phe [PTR 6136]
Apoptotic index (48 hours) (PC-3 cells): 2.4

Compound: Arg-Pro-Arg-Nva-Glu-(5-mercaptoaminopropyl-isoquinoline)-Ser-Phe [PTR 6134]
Apoptotic index (48 hours) (PC-3 cells): 2.2

Compound: Arg-Pro-Arg-Thr-Glu-(5-mercaptoaminopropyl-isoquinoline)-Ser-Phe [PTR 6104]
Apoptotic index (48 hours) (PC-3 cells): 2.9

Compound: Arg-Pro-Arg-Thr-Glu-(bAla-5-mercaptoaminopropyl-isoquinoline)-Ser-Phe [PTR 6102]
Apoptotic index (48 hours) (PC-3 cells): 2.7

Continued, in another order:

inhibition at 1 µM (PKB; [1]): 51%
inhibition at 1 µM (PKB; [2]): 68%
IC50 (PKB; [3]): 1.08 µM
IC50 (PKA; [4]): 0.25 µM
Compound: N=C(N)NCCC[C@H](NC(=O)[C@@H]1CCCN1C(=O)[C@@H](N)CCCNC(=N)N)C(=O)N[C@@H](CN)C(=O)N[C@@H](CCC(=O)NCCC(=O)NCCNS(=O)(=O)c1cccc2cnccc12)C(=O)N[C@@H](CCCN)C(=O)N[C@@H](Cc1ccccc1)C(N)=O [60020-67] (H-RPR[Dap]E([βAla-Ethylenediamine-Isoquinoline5sulfonyl])[Orn]F-NH2; N-terminus assumed)

inhibition at 1 µM (PKB; [1]): 61%
inhibition at 1 µM (PKB; [2]): 74%
IC50 (PKB; [3]): 0.5 µM
IC50 (PKA; [4]): 0.25 µM
Compound: CC(C)CC[C@H](NC(=O)[C@H](CCCN)NC(=O)[C@H](CCC(=O)NCCC(=O)NCCNS(=O)(=O)c1cccc2cnccc12)NC(=O)[C@H](CN)NC(=O)[C@H](CCCNC(=N)N)NC(=O)[C@@H]1CCCN1C(=O)[C@@H](N)CCCNC(=N)N)C(N)=O [60020-68] (H-RPR[Dap]E([βAla-Ethylenediamine-Isoquinoline5sulfonyl])[Orn][hLeu]-NH2; N-terminus assumed)

inhibition at 1 µM (PKB; [1]): 46%
inhibition at 1 µM (PKB; [2]): 90%
IC50 (PKB; [3]): 3.3 µM
IC50 (PKA; [4]): 2 µM
Compound: CCCC[C@H](NC(=O)[C@H](CCCNC(=N)N)NC(=O)[C@@H]1CCCN1C(=O)[C@@H](N)CCCNC(=N)N)C(=O)N[C@@H](CCC(=O)NCCC(=O)NCCNS(=O)(=O)c1cccc2cnccc12)C(=O)N[C@@H](CCC)C(=O)N[C@@H](Cc1ccccc1)C(N)=O [60020-95] (H-RPR[Nle]E([βAla-Ethylenediamine-Isoquinoline5sulfonyl])[Nva]F-NH2; N-terminus assumed)

IC50 (PKB; Table 2, chimeric compounds, read-out: Activity PKB): 3 µM
IC50 (PKA; [5]): 1 µM
Compound: CC[C@H](NC(=O)[C@H](CO)NC(=O)[C@@H](NC(=O)[C@H](CCCNC(=N)N)NC(=O)[C@@H]1CCCN1C(=O)[C@@H](N)CCCNC(=N)N)[C@@H](C)O)C(=O)NC(COC(=O)NCCNS(=O)(=O)c1cccc2cnccc12)Cc1ccccc1 (stereo partly shown) [PTR 6013] (H-RPRTS[Abu][X2]-{Ethylenediamine-Isoquinoline5sulfonyl})

IC50 (PKB; FIG. 1, synergistic effect of conjugation, read-out: activity (PKB inhibition)): 0.9 µM
IC50 (PKB; [6]): 1 µM
IC50 (PKA; [5]): 0.5 µM
IC50 (PKA; [7]): 0.1 µM
Compound: C[C@@H](O)[C@H](NC(=O)[C@H](CCCNC(=N)N)NC(=O)[C@@H]1CCCN1C(=O)[C@@H](N)CCCNC(=N)N)C(=O)N[C@@H](CCC(=O)NCCNS(=O)(=O)c1cccc2cnccc12)C(=O)N[C@@H](CO)C(=O)N[C@@H](Cc1ccccc1)C(N)=O [PTR 6016] (H-RPRTE([Ethylenediamine-Isoquinoline5sulfonyl])SF-NH2; N-terminus assumed)
Apoptotic index (48 hours) (PC-3 cells): 3.4

IC50 (PKB; [6]): 5.54 µM
IC50 (PKA; [7]): 0.2 µM
Compound: C[C@@H](O)[C@H](NC(=O)[C@H](CCCNC(=N)N)NC(=O)[C@@H]1CCCN1C(=O)[C@@H](N)CCCNC(=N)N)C(=O)N[C@@H](CCC(=O)NCCC(=O)NCCNS(=O)(=O)c1cccc2cnccc12)C(=O)N[C@@H](CO)C(=O)N[C@@H](Cc1ccccc1)C(N)=O [compound 6082] (H-RPRTE([βAla-Ethylenediamine-Isoquinoline5sulfonyl])SF-NH2; N-terminus assumed)
Apoptotic index (48 hours) (PC-3 cells): 2.6

IC50 (PKB; [6]): 5.6 µM
IC50 (PKA; [7]): 0.6 µM
Compound: C[C@@H](O)[C@H](NC(=O)[C@H](CCCNC(=N)N)NC(=O)[C@@H]1CCCN1C(=O)[C@@H](N)CCCNC(=N)N)C(=O)N[C@@H](CCC(=O)NCCCCC(=O)NCCNS(=O)(=O)c1cccc2cnccc12)C(=O)N[C@@H](CO)C(=O)N[C@@H](Cc1ccccc1)C(N)=O [compound 6090] (H-RPRTE([Ava-Ethylenediamine-Isoquinoline5sulfonyl])SF-NH2; N-terminus assumed)

IC50 (PKB; [6]): 9 µM
IC50 (PKA; [7]): 0.1 µM
Compound: CCCC[C@H](NC(=O)[C@H](CCCNC(=N)N)NC(=O)[C@@H]1CCCN1C(=O)[C@@H](N)CCCNC(=N)N)C(=O)N[C@@H](CCC(=O)NCCNS(=O)(=O)c1cccc2cnccc12)C(=O)N[C@@H](CO)C(=O)N[C@@H](Cc1ccccc1)C(N)=O [compound 6128]

IC50 (PKB; [6]): 9.5 µM
IC50 (PKA; [7]): 0.053 µM
Compound: C[C@@H](O)[C@H](NC(=O)[C@H](CCCNC(=N)N)NC(=O)[C@@H]1CCCN1C(=O)[C@@H](N)CCCNC(=N)N)C(=O)N[C@@H](CC(=O)NCCNS(=O)(=O)c1cccc2cnccc12)C(=O)N[C@@H](CO)C(=O)N[C@@H](Cc1ccccc1)C(N)=O [compound 6130] (H-RPRTD([Ethylenediamine-Isoquinoline5sulfonyl])SF-NH2; N-terminus assumed)

IC50 (PKB; [6]): 2 µM
Compound: CCCC[C@H](NC(=O)[C@H](CCCNC(=N)N)NC(=O)[C@@H]1CCCN1C(=O)[C@@H](N)CCCNC(=N)N)C(=O)N[C@@H](CCC(=O)NCCC(=O)NCCNS(=O)(=O)c1cccc2cnccc12)C(=O)N[C@@H](CC)C(=O)N[C@@H](Cc1ccccc1)C(N)=O [compound 6138] (H-RPR[Nle]E([βAla-Ethylenediamine-Isoquinoline5sulfonyl])[Abu]F-NH2; N-terminus assumed)
Apoptotic index (48 hours) (PC-3 cells): 3.6
